Laboratory results as given in patent US8088567B2, “Human immortalised neural precursor cell line” (NsGene A/S, priority 2005, dated 2012).
Entries after “also recorded” stand apart in the source; their conditions may differ.

How the values were obtained:
[1] = test system: NGC-407 cells; assay: Gap junction communication by fluorescent dye transfer between NGC-407 cells; assay type: cell-based, human; details: differentiating and proliferating conditions
Description: (§1) This was analyzed semi-quantitatively/qualitatively by using fluorescent dye transfer techniques. It is evident that the GJC is enhanced by 4-PB both under differentiating and proliferating conditions in vitro. This is relevant since the in vivo environment may present transplanted cells with conditions that stimulate neither differentiation nor proliferation.

[2] = test system: U87MG xenograft tumor; assay: In vivo migration of GFP-expressing NGC-407 cells in nude rat model of human glioblastoma multiforme; set-up: species or system nude rats; details: PB 250 mg/kg intraperitoneally twice daily, 2 weeks
Description: 8-9 weeks old athymic nude male rats (rnu/rnu; Harlan, Germany) with an average weight of 200 g were used in our human glioblastoma multiforme xenograft model. They were housed in a group of 3 in standardized big cages in 50-70% relative humidity and 20°-24° C. temperature with 12/12 day/night variation. Food (Ad libitum), water and other materials used for these immunocompromised animals were autoclaved before use. Animals were anesthesitized by isoflurane inhalation and the head was fixed in a stereo tactic apparatus. Under microscopic guidance a burr hole of 1 mm diameter was made over the right hemisphere, 2 mm right lateral to the bregma. Using a Hamilton syringe of 5 μl volume 1.5×10^5 U87MG cells in 3 μl volume were slowly injected through the burr hole at a depth of 3.5 mm from the surface to reach the corpus callosum.
2×10^6 neural progenitors (NGC-407) recombinantly expressing green fluorescent protein (GFP), were plated in a 100 mm Petri dish and were grown as neurospheres for 48 hours. […]
Histopathological analysis of the sections was carried out by haematoxylin and eosin staining to determine the size and location of the implants. […] Immunohistochemically the tumor location was determined by correlating with the histological analysis and by the cell density while the sections were counter-stained with hoechst.

[3] = test system: NGC-407 & U343MGa-cl 2:6 cells; assay: Gap junction communication by calcein dye transfer, NGC-407 to U343MGa-cl 2:6; assay type: cell-based, human; details: PB 0.5 mM donor, 4 mM recipient for 72 hours, 4 hours co-culture at 0.5 mM
Description: Donor human embryonic neural stem cells (NGC-407) and recipient human glioblastoma cells (U343MGa-cl 2:6) were grown each in 2 separate 35 mm Petri dishes (1×10^5/dish). For NGC-407 cells the plates were poly-L-lysine (Sigma) coated and the medium was DMEM/F12 1:1 with glutamax I (Invitrogen) containing 40 ng/ml bFGF2 (R&D Systems), 20 ng/ml rhEGF, 1× N2 supplement, 1× non-essential amino acid, 5 mM HEPES buffer solution (from Invitrogen), 0.5% human serum albumin and 6 g/L D-glucose (from Sigma). The recipient cells were grown in DMEM containing 10% FBS, 100 units/ml penicillin and 100 μg/ml streptomycin (from Invitrogen). When the cells were approx. 60% confluent, treatment with 0 & 0.5 mM 4-Phenyl Butyrate (PB) for donor cells and 0 & 4 mM PB for recipient cells was started and continued for 72 hours. The donor cells were then double labelled by incubating with 1 ml of cell medium containing 10 μM Dil and 5 μM Calcein-AM (Molecular Probes) for 20 min. After aspiration of the dye containing medium the cells were washed 4-5 times with pure medium and then with PBS to get rid of free dye. After a very brief trypsinization the cells were centrifuged and resuspended in co-culture medium (donor cell medium including 0.5% FBS). The medium of recipient cells was replaced by co-culture medium and 5×10^4 donor cells were added to one recipient plate. […]

[4] = test system: NGC-407 cells and U87 gioblastoma cells; assay: Gap junction communication by fluorescent dye transfer, NGC-407 and U87; assay type: cell-based, human; details: differentiating and proliferating conditions
Description: as §1

[5] = test system: NGC-407 wt cells; assay: Cell killing effect of AZT, XTT viability assay, parental cells; assay type: cell-based, human; details: parental NGC-407 cell line, 120 hours drug exposure
Description: Cell culture The human neuronal progenitor cell line NGC-407 was cultured in DMEM/F12 (Gibco #31331-028) conditioned with Human Serum Albunim (HSA) (Sigma #A 1653), N2 (Gibco #17502-048), B27 (Gibco #17504-044), Glucose (Sigma #G8769), bFGF (R&D Systems #233-FB), EGF (R& Systems #236-EG), MEM NEAA, x100 (Gibco #11140-035), HEPES (Gibco #15630-056), in poly-L-lysine (Sigma #P4832) coated flasks/Plates (CM-Lab, Denmark). Cells were grown at 37° C. and 5% CO2 in a humidified incubator.
Exponentially growing NGC-407 wt and tomato kinase (ZG561) expressing cells were plated at a density of 5.000 cells/well in poly-L-lysine coated 96-well plates in 100 μl conditioned medium and incubated 37° C. in a humidified incubator with a gas phase of 5% CO2. After 48 hours, medium was replaced with medium containing varying concentrations of AZT starting at 20 mM and down. […] The chemo resistance of cultured cells was monitored by the surviving cell fraction as a function of the drug concentration. Viability of cells was determined via the colorimetric XTT assay (XTT kit II-Roche, cat no. 1465015). […] The absorbance at 450 and 690 nm was determined using an ELISA plate reader (Ascent, ThermoLab). The IC50 value (50% inhibition concentration) of the investigated compound was calculated as the mean value of each experiment using SigmaPlot® (Dyrberg Trading, DK).

[6] = test system: tomato kinase (ZG561) expressing NGC-407 cells; assay: Cell killing effect of AZT, XTT viability assay, tomato kinase expressing cells; assay type: cell-based, human
Description: The constructed pLHCXZ (Clontech) plasmid vector pZG561 (coding for a Tomato Thymidine kinase I with a C-terminal deletion of 26 amino acids, WO 03/100045) and pVPack-GP (Stratagene) plus pVPack-VSV-G (Stratagene) were transfected into the packaging cells using LipofectAMINE PLUS (Invitrogen-Life Technologies, Inc.) according to the protocol provided by the supplier. The medium from the transfected cells, cultured in DMEM (Invitrogen), was collected 48 and 72 hours post transfection, filtered through a 0.45 μm filter, pelleted by ultracentrifugation (50.000g, 90 min at 4° C.) and dissolved in DMEM (Invitrogen). The titer of the virus was determined by reverse transcriptase assay. […]
The day before transduction, 1×10^6 cells/well were seeded in 6-well plates. […] Subsequently cells were ready for experiments.
Exponentially growing NGC-407 wt and tomato kinase (ZG561) expressing cells were plated at a density of 5.000 cells/well in poly-L-lysine coated 96-well plates in 100 μl conditioned medium and incubated 37° C. in a humidified incubator with a gas phase of 5% CO2. […] The chemo resistance of cultured cells was monitored by the surviving cell fraction as a function of the drug concentration. Viability of cells was determined via the colorimetric XTT assay (XTT kit II-Roche, cat no. 1465015). […] The absorbance at 450 and 690 nm was determined using an ELISA plate reader (Ascent, ThermoLab). […]

[7] = test system: transfected cell line; details: cited from earlier work

In the case of O=C(O)CCCc1ccccc1 [4-PB, 4-Phenyl Butyrate], the “gap junction communication (GJC) between NGC-407 cells” value [1] is reported as “enhances the gap junction communication”, the “GFP staining / GFP positive cells around and inside the tumor” value [2] is reported as “enhanced the GFP staining; also recorded: increases the number of GFP positive cells” and the “gap junction communication NGC-407 to U343MGa-cl 2:6 (calcein transfer)” value [3] is reported as “significantly enhanced”. For the same molecule, the “gap junction communication NGC-407 to U343MGa-cl 2:6 (calcein transfer)” value ([3]; listed as PB) was “number of green recipient cells has also been significantly increased” and the “gap junction communication (GJC) between NGC-407 cells and U87 gioblastoma cells” value [4] was “enhances the gap junction communication”.

In the case of Cc1cn([C@H]2C[C@H](N=[N+]=[N-])[C@@H](CO)O2)c(=O)[nH]c1=O [AZT], the IC50 [5] is reported as 11.8 mM, the IC50 ([6]; Hygromycin selected ZG561 (tomato TK) NGC-407 cells, 120 hours drug exposure, XTT) is reported as 0.051 mM and the “Sensitisation of NGC-407 cells towards AZT by Tomato Thymidine kinase” value ([6]; ZG561 cells versus parental cells) is reported as 230 fold.

B1: B5: mutant Drosophila melanogaster deoxyribonucleoside kinase variant, SEQ ID NO 5 (protein)
chain: MAEAASCARKGTKYAEGTQPFTVLIEGNIGSGKTTYLNHFEKYKNDICLLTEPVEKWRNVNGVNLLELMYKDPKKWAMPFQSYATLTMLQSHTAPTNKKLKIMERSIFSARYCFVENMRRNGSLEQGMYNTLEEWYKFIEESIHVQADLIIYLRTSPEVAYERIRQRARSEESCVPLKYLQELHELHEDWLIHQRRPQSCKVLVLDADLDLENIGTEYQRSESSIFDAISSNQQPSPVPVSPSKRQRVAR
modifications: Drosophila melanogaster
For B1, the “degree of activation for gemcitabine relative to wild type Dm dNK” value [7] is listed as “approximately 50 times”.
